Measurements reported in patent publication US9327060B2 (CARDINAL HEALTH SWITZERLAND 515 GmbH, priority 2009, dated 2016).

Legend:
[1] = system: platelet deposition and thrombus formation on the stent surface; assay: in vitro bovine blood loop model; details: sirolimus/cilostazol combination coatings, FIG. 8
Source text: The anti-thrombotic efficacy of the above-described three configurations is illustrated in FIG. 8. FIG. 8 illustrates the anti-thrombotic properties of the sirolimus/cilostazol combination coatings described above in an in vitro bovine blood loop model. In the in vitro bovine blood loop model, fresh bovine blood is heparinized to adjust for […] (ACT) of about two hundred (200) seconds. The platelet content in the blood is labeled through the use of Indium 111. In the study, a stent is deployed in a silicone tube, which is part of a closed loop system for blood circulation. The heparinzed blood is circulated through the closed loop system by means of a circulating pump. Blood clots and thrombus builds up on a stent surface over time and reduces the flow rate of blood through the stented loop. The flow is stopped when the flow rate is reduced to fifty (50) percent of the starting value or at ninety (90) minutes if none of the tested stent reduces the flow by fifty (50) percent. The total radioactivity (In 111) on the stent surface is counted by a […] and normalized with the control unit, set as one hundred (100) percent in the chart. […]

[2] = porcine drug elution PK study of the dual drug eluting coating; format: in vivo; details: after eight (8) days of implantation; stent of FIG. 11 (sirolimus and cilostazol in one EVA/BMA layer, 100 μg BMA overcoat)
Source text: Another critical parameter for the performance of the thrombus resistance of a device coated with cilostazol is the duration of the drug release from the coating. This is of particular significance in the two weeks after device implantation. In the porcine drug elution PK studies of the dual drug eluting coating, both cilostazol and sirolimus were slowly released from the coating, resulting in a sustained drug release profile. The purpose of the porcine PK study is to assess the local pharmacokinetics of a drug eluting stent at a given implantation time. Normally three stents are implanted in three different coronary arteries in a pig for a given time point and then retrieved for total drug recovery analysis. The stents are retrieved at predetermined time points; namely, 1, 3 and 8 days. The stents are extracted and the total amount of drug remaining on the stents is determined by analysis utilizing HPLC (high performance liquid chromatography) for total drug amount. The difference between the original amount of drug on the stent and the amount of drug retrieved at a given time represents the amount of drug released in that period. The continuous release of drug into surrounding arterial tissue is what prevents the neointimal growth and restenosis in the coronary artery. A normal plot represents the percentage of total drug released (%, y-axis) vs. time of implantation (day, x-axis). […]

[3] = in vitro release kinetics of sirolimus and cilostazol from coated stent; format: physicochemical; details: stent of FIG. 11 (sirolimus and cilostazol in one EVA/BMA layer, 100 μg BMA overcoat); FIG. 10
[4] = Source text: Referring to FIG. 29, there is illustrated the cumulative in vivo drug release percentages from a reservoir eluting stent for each drug over a thirty day period. Curve 2902 represents the profile for cilostazol while curve 2904 represents the profile for sirolimus. FIG. 30 is a graphical representation of the amount of each drug, in micrograms, released in vivo. Curve 3002 represents the profile for cilostazol while curve 3004 represents the profile for sirolimus. The curves in the figures illustrate that both the drugs elute independently of each other with minimal or substantially no interaction. […] Since the amount of drug (by weight) is different for the drugs in their respective reservoirs, the total amount of drug released at thirty (30) days was higher for sirolimus as compared to cilostazol.

Row | SMILES | thrombus formation [1] | drug remained in the drug coating [2] | in vitro release [3] | cumulative in vivo elution [4]
1 | O=C1CCc2cc(OCCCCc3nnnn3C3CCCCC3)ccc2N1 [cilostazol, 6[4-(1-cyclohexyl-1H-tetrazol-5-yl)-butoxy]-3,4-dihydro-2-(1H)-quinolinone] | significantly reduces thrombus formation | ~80% | ~35% | sixty (60) to seventy (70)
2 | CO[C@H]1C[C@@H]2CC[C@@H](C)[C@@](O)(O2)C(=O)C(=O)N2CCCC[C@H]2C(=O)O[C@H]([C@H](C)C[C@@H]2CC[C@@H](O)[C@H](OC)C2)CC(=O)[C@H](C)/C=C(\C)[C@@H](O)[C@@H](OC)C(=O)[C@H](C)C[C@H](C)/C=C/C=C/C=C/1C [Rapamycin] |  | ~80% |  | sixty (60) to seventy (70)
